Among the data in paper PMC8600920 (Antiviral Research, 2021) are EC50 and CC50 values, retold here.

One data set relates to HCoV-OC43. The data set can be described thus: HCoV-OC43 cytopathic effects. The data set is classed as cell-based. As to conditions: Betacoronavirus 1, OC43, HCT-8, 120 h, read-out: Anti-HCoV-OC43 (EC50/μM).
A further data set deals with HCoV-NL63. Put plainly: HCoV-NL63 cytopathic effects. The data set is classed as cell-based. As to conditions: Human coronavirus NL63, LLC-MK2, 120 h, read-out: Anti-HCoV-NL63 (EC50/μM).
The nature of a further data set: in vitro. Conditions: human.

Turning to `CCC(CC)COC(=O)[C@H](C)N[P@](=O)(OC[C@H]1O[C@@](C#N)(c2ccc3c(N)ncnn23)[C@H](O)[C@@H]1O)Oc1ccccc1` [Remdesivir], the values for the EC50 in the data set on HCoV-OC43 and with HCoV-NL63 were 0.82 µM and 2.89 µM, respectively. The CC50 in the data set “in vitro” was above 100000 nM.
